Reference: patent publication US20100298141A1, “SUBSTITUTED PYRIDINE N-OXIDE HERBICIDES” (E. I. DU PONT DE NEMOURS AND COMPANY, priority 2007, published 2010)

Key:
winter wheat (TRZAW) [1] = assay: Test J preemergence mixtures of Compound 2 with crop safeners; format: in vivo, Triticum aestivum; set-up: key to TRZAW Obsd. (observed effect): observed % herbicidal effect; conditions: for TRZAW Obsd. (observed effect): Test J, alone
Excerpt: (§1) Seeds of test plants consisting of winter wheat (TRZAW, Triticum aestivum) and corn (ZEAMD, Zea mays cv. ‘Pioneer 33G26’) were planted into a blend of loam soil and sand and treated preemergence with a directed soil spray using test chemicals formulated in a non-phytotoxic solvent mixture that included a surfactant. […] Balanced fertilizer was applied through the watering system. Treatments consisted of Compound 2 and the above mentioned safeners alone and in combination using a spray volume of 457 L/ha. Each treatment was replicated four times. […] A dash (-) response means no test result. Colby's Equation was used to determine the herbicidal effects expected from the mixtures. Colby's Equation (Colby, S. […] wherein • Pa+b is the percentage effect of the mixture expected from additive contribution of the individual components, • Pa is the observed percentage effect of the first active ingredient at the same use rate as in the mixture, and Pb is the observed percentage effect of the second active ingredient at the same use rate as in the mixture.

corn (ZEAMD) [2] = assay: as above; format: in vivo, Zea mays cv. ‘Pioneer 33G26’; set-up: key to ZEAMD Obsd. (observed effect): observed % herbicidal effect; conditions: for ZEAMD Obsd. (observed effect): Test J, alone
Excerpt: as §1

corn (ZEAMD) [3] = assay: Test I preemergence mixtures of compound 2 with crop safeners; format: in vivo, Zea mays cv. ‘Pioneer 33G26’; conditions: alone
Excerpt: (§2) Seeds of test plants consisting of winter wheat (TRZAW, Triticum aestivum), corn (ZEAMD, Zea mays cv. ‘Pioneer 33G26’), wild oat (AVEFA, Avena fatua), and Italian ryegrass (LOLMU, Lolium multiflorum) were planted into a blend of loam soil and sand and treated preemergence with a directed soil spray using test chemicals formulated in a non-phytotoxic solvent mixture that included a surfactant. Seeds of small-seeded species were planted about 1 cm deep; larger seeds were planted about 2.5 cm deep. […] Balanced fertilizer was applied through the watering system. Treatments consisted of Compound 2 and the above mentioned safeners alone and in combination using a spray volume of 457 L/ha. Each treatment was replicated four times. Treated plants and controls were maintained in a greenhouse for 14 to 21 days, after which time all species were compared to controls and visually evaluated. […] A dash (-) response means no test result. Colby's Equation was used to determine the herbicidal effects expected from the mixtures. Colby's Equation (Colby, S. […] Pa+b=Pa+Pb−(PaPb/100) wherein • Pa+b is the percentage effect of the mixture expected from additive contribution of the individual components, • Pa is the observed percentage effect of the first active ingredient at the same use rate as in the mixture, and • Pb is the observed percentage effect of the second active ingredient at the same use rate as in the mixture.

winter wheat (TRZAW) [4] = assay: Test H preemergence mixtures of compound 2 with crop safeners; format: in vivo, Triticum aestivum; set-up: key to TRZAW Obsd. (observed effect): observed % effect, visually evaluated vs controls; conditions: for TRZAW Obsd. (observed effect): Test H, alone; for Plant response rating TRZAW Obsd.: scale 0 to 100
Excerpt: (§3) Seeds of test plants consisting of winter wheat (TRZAW, Triticum aestivum), corn (ZEAMD, Zea mays cv. ‘Pioneer 33G26’), giant foxtail (SETFA, Setaria faberi), and Italian ryegrass (LOLMU, Lolium multiflorum) were planted into a blend of loam soil and sand and treated preemergence with a directed soil spray using test chemicals formulated in a non-phytotoxic solvent mixture that included a surfactant. Seeds of small-seeded species were planted about 1 cm deep; larger seeds were planted about 2.5 cm deep. […] Balanced fertilizer was applied through the watering system. Treatments consisted of Compound 2 and the above mentioned safeners alone and in combination using a spray volume of 457 L/ha. Each treatment was replicated four times. Treated plants and controls were maintained in a greenhouse for 14 to 21 days, after which time all species were compared to controls and visually evaluated. […] A dash (-) response means no test result. Colby's Equation was used to determine the herbicidal effects expected from the mixtures. Colby's Equation (Colby, S. […] wherein • Pa+b is the percentage effect of the mixture expected from additive contribution of the individual components, • Pa is the observed percentage effect of the first active ingredient at the same use rate as in the mixture, and • Pb is the observed percentage effect of the second active ingredient at the same use rate as in the mixture.

wild oat (AVEFA) = assay: Test I preemergence mixtures of compound 2 with crop safeners; format: in vivo, Avena fatua; conditions: alone
Excerpt: as §2

Italian ryegrass (LOLMU) [5] = assay: Test H preemergence mixtures of compound 2 with crop safeners; format: in vivo, Lolium multiflorum; set-up: key to LOLMU Obsd. (observed effect): observed % effect, visually evaluated vs controls; conditions: for LOLMU Obsd. (observed effect): Test H, alone; for Plant response rating LOLMU Obsd.: scale 0 to 100
Excerpt: as §3

Italian ryegrass (LOLMU) [6] = assay: Test I preemergence mixtures of compound 2 with crop safeners; format: in vivo, Lolium multiflorum; conditions: alone
Excerpt: as §2

winter wheat (TRZAW) [7] = assay: as above; format: in vivo, Triticum aestivum; conditions: alone
Excerpt: as §2

giant foxtail (SETFA) = assay: Test H preemergence mixtures of compound 2 with crop safeners; format: in vivo, Setaria faberi; set-up: key to SETFA Obsd. (observed effect): observed % effect, visually evaluated vs controls; conditions: for SETFA Obsd. (observed effect): Test H, alone; for Plant response rating SETFA Obsd.: scale 0 to 100
Excerpt: as §3

corn (ZEAMD) [8] = assay: as above; format: in vivo, Zea mays cv. ‘Pioneer 33G26’; set-up: key to ZEAMD Obsd. (observed effect): observed % effect, visually evaluated vs controls; conditions: for ZEAMD Obsd. (observed effect): Test H, alone; for Plant response rating ZEAMD Obsd.: scale 0 to 100
Excerpt: as §3

[9] = cloquintocet-mexyl alone 8 g a.i./ha
[10] = cloquintocet-mexyl alone 16 g a.i./ha
[11] = cloquintocet-mexyl alone 31 g a.i./ha

| Compound | ZEAMD Obsd. (observed effect) (corn (ZEAMD) [3]; 4 g a.i./ha) | ZEAMD Obsd. (observed effect) (corn (ZEAMD) [3]; 8 g a.i./ha) | TRZAW Obsd. (observed effect) (winter wheat (TRZAW) [4]; 8 g a.i./ha) | TRZAW Obsd. (observed effect) (winter wheat (TRZAW) [4]; 16 g a.i./ha) | TRZAW Obsd. (observed effect) (winter wheat (TRZAW) [4]; 31 g a.i./ha) | AVEFA Obsd. (observed effect) (wild oat (AVEFA); 4 g a.i./ha) | AVEFA Obsd. (observed effect) (wild oat (AVEFA); 8 g a.i./ha) | LOLMU Obsd. (observed effect) (Italian ryegrass (LOLMU) [5]; 8 g a.i./ha) | LOLMU Obsd. (observed effect) (Italian ryegrass (LOLMU) [5]; 16 g a.i./ha) | LOLMU Obsd. (observed effect) (Italian ryegrass (LOLMU) [5]; 31 g a.i./ha) | LOLMU Obsd. (observed effect) (Italian ryegrass (LOLMU) [6]; 4 g a.i./ha) | LOLMU Obsd. (observed effect) (Italian ryegrass (LOLMU) [6]; 8 g a.i./ha) | TRZAW Obsd. (observed effect) (winter wheat (TRZAW) [7]; 4 g a.i./ha) | TRZAW Obsd. (observed effect) (winter wheat (TRZAW) [7]; 8 g a.i./ha) | SETFA Obsd. (observed effect) (giant foxtail (SETFA); 8 g a.i./ha) | SETFA Obsd. (observed effect) (giant foxtail (SETFA); 16 g a.i./ha) | SETFA Obsd. (observed effect) (giant foxtail (SETFA); 31 g a.i./ha) | ZEAMD Obsd. (observed effect) (corn (ZEAMD) [8]; 8 g a.i./ha) | ZEAMD Obsd. (observed effect) (corn (ZEAMD) [8]; 16 g a.i./ha) | ZEAMD Obsd. (observed effect) (corn (ZEAMD) [8]; 31 g a.i./ha) | further results |
| --- | --- | --- | --- | --- | --- | --- | --- | --- | --- | --- | --- | --- | --- | --- | --- | --- | --- | --- | --- | --- | --- |
| CC(C)(C)c1ccc(C(=O)O)cc1 [4-t-butyl benzoic acid] | – | – | – | – | – | – | – | – | – | – | – | – | – | – | – | – | – | – | – | – | TRZAW Obsd. (observed effect) (winter wheat (TRZAW) [1]; 8 g a.i./ha): 0; TRZAW Obsd. (observed effect) (winter wheat (TRZAW) [1]; 31 g a.i./ha): 0; TRZAW Obsd. (observed effect) (winter wheat (TRZAW) [1]; 125 g a.i./ha): 0; TRZAW Obsd. (observed effect) (winter wheat (TRZAW) [1]; 500 g a.i./ha): 0; ZEAMD Obsd. (observed effect) (corn (ZEAMD) [2]; 8 g a.i./ha): 0; ZEAMD Obsd. (observed effect) (corn (ZEAMD) [2]; 31 g a.i./ha): 0; ZEAMD Obsd. (observed effect) (corn (ZEAMD) [2]; 125 g a.i./ha): 0; ZEAMD Obsd. (observed effect) (corn (ZEAMD) [2]; 500 g a.i./ha): 0 |
| C=CCN(CC=C)C(=O)C(Cl)Cl [dichlormid] | 0 | 0 | 0 | 0 | 0 | 0 | 0 | 0 | 0 | 0 | 0 | 0 | 0 | 0 | 0 | 0 | 3 | 0 | 0 | 0 | Observed effect (Obsd.), TRZAW (winter wheat (TRZAW) [1]; safener alone at 8 g a.i./ha): 0%; Observed effect (Obsd.), TRZAW (winter wheat (TRZAW) [1]; safener alone at 31 g a.i./ha): 0%; Observed effect (Obsd.), ZEAMD (corn (ZEAMD) [2]; safener alone at 8 g a.i./ha): 0%; Observed effect (Obsd.), ZEAMD (corn (ZEAMD) [2]; safener alone at 31 g a.i./ha): 0%; Observed effect (Obsd.), ZEAMD (corn (ZEAMD) [2]; safener alone at 500 g a.i./ha): 0% |
| CCCCCC(C)OC(=O)COc1ccc(Cl)c2cccnc12 (stereo not drawn) [cloquintocet-mexyl] | 0 | 0 | – | – | – | 0 | 0 | – | – | – | 0 | 0 | 0 | 0 | – | – | – | – | – | – | Plant response rating TRZAW Obsd. (winter wheat (TRZAW) [4]; [9]): 0; Plant response rating TRZAW Obsd. (winter wheat (TRZAW) [4]; [10]): 0; Plant response rating TRZAW Obsd. (winter wheat (TRZAW) [4]; [11]): 0; Plant response rating LOLMU Obsd. (Italian ryegrass (LOLMU) [5]; [9]): 0; Plant response rating LOLMU Obsd. (Italian ryegrass (LOLMU) [5]; [10]): 8; Plant response rating LOLMU Obsd. (Italian ryegrass (LOLMU) [5]; [11]): 0; Plant response rating SETFA Obsd. (giant foxtail (SETFA); [9]): 5; Plant response rating SETFA Obsd. (giant foxtail (SETFA); [10]): 3; Plant response rating SETFA Obsd. (giant foxtail (SETFA); [11]): 8; Plant response rating ZEAMD Obsd. (corn (ZEAMD) [8]; [9]): 0; Plant response rating ZEAMD Obsd. (corn (ZEAMD) [8]; [10]): 0; Plant response rating ZEAMD Obsd. (corn (ZEAMD) [8]; [11]): 0 |
| CCOC(=O)C1=NOC(c2ccccc2)(c2ccccc2)C1 [isoxadifen-ethyl] | 0 | 0 | 0 | 0 | 0 | 0 | 0 | 0 | 0 | 0 | 0 | 0 | 0 | 0 | 0 | 0 | 3 | 0 | 0 | 0 | Observed effect (Obsd.), TRZAW (winter wheat (TRZAW) [1]; safener alone at 8 g a.i./ha): 0%; Observed effect (Obsd.), TRZAW (winter wheat (TRZAW) [1]; safener alone at 31 g a.i./ha): 0%; Observed effect (Obsd.), TRZAW (winter wheat (TRZAW) [1]; safener alone at 500 g a.i./ha): 0%; Observed effect (Obsd.), ZEAMD (corn (ZEAMD) [2]; safener alone at 8 g a.i./ha): 0%; Observed effect (Obsd.), ZEAMD (corn (ZEAMD) [2]; safener alone at 31 g a.i./ha): 0%; Observed effect (Obsd.), ZEAMD (corn (ZEAMD) [2]; safener alone at 500 g a.i./ha): 0%; Observed effect (Obsd.), ZEAMD (corn (ZEAMD) [2]; single active ingredient alone at 125 g a.i./ha): 0% |
| CC1COc2ccccc2N1C(=O)C(Cl)Cl (stereo not drawn) [benoxacor] | 0 | 0 | 0 | 0 | 0 | 0 | 0 | 0 | 0 | 0 | 0 | 0 | 0 | 0 | 0 | 3 | 0 | 0 | 0 | 0 | TRZAW Obsd. (observed effect) (winter wheat (TRZAW) [1]; 8 g a.i./ha): 0; TRZAW Obsd. (observed effect) (winter wheat (TRZAW) [1]; 31 g a.i./ha): 0; TRZAW Obsd. (observed effect) (winter wheat (TRZAW) [1]; 125 g a.i./ha): 0; TRZAW Obsd. (observed effect) (winter wheat (TRZAW) [1]; 500 g a.i./ha): 0; ZEAMD Obsd. (observed effect) (corn (ZEAMD) [2]; 8 g a.i./ha): 0; ZEAMD Obsd. (observed effect) (corn (ZEAMD) [2]; 31 g a.i./ha): 0; ZEAMD Obsd. (observed effect) (corn (ZEAMD) [2]; 125 g a.i./ha): 0; ZEAMD Obsd. (observed effect) (corn (ZEAMD) [2]; 500 g a.i./ha): 0 |
